Measured values: patent publication US20070184490A1, “Neuronal nicotinic receptor ligands and their use” (priority 2006, published 2007)

Columns and labels:
human α4 β2 NNRs = human α4 β2 NNRs (Homo sapiens, UniProt P17787+P43681); assay: binding to human α4β2 NNRs in vitro
[1] = test system: α4β2, α3β4, or α3β2 NNR subtypes; assay: ion channel flux in cells expressing NNR subtypes; assay type: cell-based
Excerpt: One method for assessing ion channel flux is via activation of ion flux into a cell expressed with recombinant α4β2, α3β4, or α3β2 NNR subtypes. Alternatively, a native cell line that expresses NNRs also can be suitable. The method can be accomplished under any suitable binding conditions. Examples of suitable binding conditions for [^3H]-cytisine binding have been described in the art, for example in at least U.S. Pat. Nos. 6,403,575 and 6,133,253, the procedures of which are herein incorporated by reference in their entirety. Data obtained from such ion channel flux assays can be evaluated to determine percent maximal nicotinic response (%), which directly correlates to percent maximal agonist efficacy.
Cells of IMR-32 human neuroblastoma clonal cell line (ATCC, Rockville, Md., USA) were maintained in a log phase of growth according to established procedures. Experimental cells were seeded at a density of 500,000 cells/mL into a 24-well tissue culture dish. Plated cells were allowed to proliferate for at least 48 hours before loading with 2 μCi/mL of ^86Rb^+ (35 Ci/mmol) overnight at 37° C. The ^86Rb^+ efflux assays were performed according to previously published protocols (Lukas, R. J., J. Pharmacol. Exp. Ther., 265, 294-302, 1993) except serum-free Dulbecco's Modified Eagle's medium was used during the ^86Rb^+ loading, rinsing, and agonist-induced efflux steps. […]

adults with ADHD = assay: pilot study: computerized cognitive assessment battery; assay type: in vivo, human
Description: Raters for the CAARS were trained and certified prior to the start of the study. Investigator-administered CAARS, CGI-ADHD-S, Hamilton Anxiety Scale (HAM-A) (Hamilton 1959), and Hamilton Depression Scale (HAM-D) (Hamilton 1960) were administered to subjects at baseline and at the completion of each treatment period (Days 14, 28, 42, and 56). CMRS, HAM-A, and HAM-D ratings were based on the previous seven days. After being trained, subjects completed a computerized cognitive assessment battery (Simpson et al 1989), which was amended to include the Conner's Continuous Performance Test (Conners 1995) and the Stroop Color Word Test (Jensen and Rohwer 1966), at baseline and at the completion of each treatment period. Attentional tasks (simple and choice reaction time, digit vigilance), selective attention (Conner's CPT), working memory tasks (numeric and spatial working memory, rapid visual information processing), episodic secondary memory (immediate and delayed word recall, word and picture recognition), motor control tasks (tracking), and executive function (the Stroop effect) were among the items assessed.
The primary efficacy endpoint was the CAARS total ADHD symptom score (sum of Inattention and Hyperactivity/Impulsivity scores) obtained on the last day of each treatment period. Treatment differences were assessed using an analysis of variance (ANOV A) model with fixed terms fitted for treatment, period, and sequence and a random effect for subjects-within-sequence. […] There were no corrections for multiple comparisons in this proof-of-concept study. Statistical tests of efficacy were one-sided; p-values ≦0.050 were considered statistically significant, and those between […] indicated a statistical trend.

Sequence of human α4 β2 NNRs (P43681 29-627 limits assumed): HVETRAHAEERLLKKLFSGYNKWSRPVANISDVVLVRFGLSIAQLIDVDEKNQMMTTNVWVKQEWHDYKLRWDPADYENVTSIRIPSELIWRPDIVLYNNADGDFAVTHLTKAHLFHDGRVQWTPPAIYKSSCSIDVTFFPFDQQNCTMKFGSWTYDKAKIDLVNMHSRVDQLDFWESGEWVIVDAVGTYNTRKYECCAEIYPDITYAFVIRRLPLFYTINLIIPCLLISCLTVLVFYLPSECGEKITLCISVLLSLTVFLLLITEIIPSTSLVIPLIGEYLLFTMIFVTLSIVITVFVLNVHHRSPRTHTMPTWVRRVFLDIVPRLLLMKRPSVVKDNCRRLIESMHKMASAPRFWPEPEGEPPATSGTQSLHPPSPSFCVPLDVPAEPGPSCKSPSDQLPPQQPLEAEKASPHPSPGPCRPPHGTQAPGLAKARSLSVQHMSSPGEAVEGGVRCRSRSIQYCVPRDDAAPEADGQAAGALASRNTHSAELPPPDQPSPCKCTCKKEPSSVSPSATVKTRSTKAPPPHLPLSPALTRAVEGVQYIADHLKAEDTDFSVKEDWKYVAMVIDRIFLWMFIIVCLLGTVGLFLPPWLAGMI
Sequence of human α4 β2 NNRs (P17787 26-502): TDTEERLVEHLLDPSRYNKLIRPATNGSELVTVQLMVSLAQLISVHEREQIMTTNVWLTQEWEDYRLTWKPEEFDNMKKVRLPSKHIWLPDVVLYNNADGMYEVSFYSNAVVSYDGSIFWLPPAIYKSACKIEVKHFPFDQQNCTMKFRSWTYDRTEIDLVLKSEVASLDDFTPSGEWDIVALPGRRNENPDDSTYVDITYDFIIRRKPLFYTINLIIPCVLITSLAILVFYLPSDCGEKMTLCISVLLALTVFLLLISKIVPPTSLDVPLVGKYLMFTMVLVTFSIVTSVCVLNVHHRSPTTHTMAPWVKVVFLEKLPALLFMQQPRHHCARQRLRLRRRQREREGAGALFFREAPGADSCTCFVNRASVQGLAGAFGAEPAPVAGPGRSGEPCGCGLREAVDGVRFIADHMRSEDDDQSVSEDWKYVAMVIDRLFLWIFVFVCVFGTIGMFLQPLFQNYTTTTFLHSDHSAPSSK

binding to human α4 β2 NNRs (human α4 β2 NNRs): very selectively binds
Compound: Cc1ncccc1OC[C@@H]1CCCN1 [ABT-089, 2-methyl-3-(2-(S)-pyrrolidinylmethoxy)pyridine]
agonist activity at NNRs expressed in vitro [1]: weak agonist activity | Continuous Performance Test Attentiveness (adults with ADHD; 2 mg): 0.56±0.27 | Continuous Performance Test Attentiveness (adults with ADHD; 4 mg): 0.68±0.27 | Continuous Performance Test Attentiveness (adults with ADHD; 20 mg): 0.69±0.27 | information processing speed (adults with ADHD; 20 mg): 516.3±12.7 | Continuous Performance Test number of commission errors (adults with ADHD; all ABT-089 dose levels): statistically significant improvement | measures of attention (reaction time, vigilance), episodic secondary memory, executive function (Stroop Effect) vs placebo (adults with ADHD; in vivo): no meaningful differences
